The structures appear in SMILES notation. Like-named read-outs stand apart in the source and are kept apart here.

For one series, the system named is endogenous TFEB. Description: TFEB nuclear translocation, immunocytochemistry high-content imaging. In kind it is cell-based.
Series [1] has as its system SH-SY5Y cells. Description: Nuclear count from microscopy images (cellular growth and toxicity). Further: reference of the scale not given here.
The subject of a further series is endogenous TFE3. In words: TFE3 nuclear translocation, immunocytochemistry high-content imaging. In kind it is cell-based.
The subject of series [2] is SH-SY5Y cells.
Source text: The PKIS2 Library was supplied by The Structural Genomics Consortium at the University of North Carolina at Chapel Hill.
In series [3] the test system is SH-SY5Y cells. In words: AK (adenylate kinase) release ToxiLight cytotoxicity assay. Further: reference of the scale not given here.
[4] abbreviates: PKIS2 primary screening, DQ Red BSA intensity.
Setting [5] is: PKIS2 primary screening, DQ Red BSA spot count.
Wherever DQ Intensity is given: reference of the scale not given here.
Wherever DQ Spot is given: reference of the scale not given here.

`O=c1[nH]cc(-c2ccc(O)cc2)c2sc(-c3ccncc3)cc12` [UNC10225166A] came in with a TFEB % in the series with endogenous TFEB (PKIS2 primary screen) of 3.69%. For the same compound, the “Nuclear Count” value with SH-SY5Y cells [1] (PKIS2 primary screen) amounted to 145.07. The compound further displayed a TFE3 % in the series with endogenous TFE3 (PKIS2 primary screen) of 6.08%. Moreover, in the series with SH-SY5Y cells [2] (PKIS2 primary screen, DQ Red BSA intensity), the “DQ Intensity” value is 80.95. Moreover, in the series with SH-SY5Y cells [2] (PKIS2 primary screen, DQ Red BSA spot count), the “DQ Spot” value was determined as 75.27. The AK in the series with SH-SY5Y cells [3] (PKIS2 primary screen) is on record as 95.26.

In turn, `Cl.Cl.NCC(NC(=O)c1cc(-c2ccccc2)c(-c2ccnc3[nH]ccc23)s1)c1ccccc1` (stereo not drawn) [UNC10225466A] registered a TFEB % in the series with endogenous TFEB (PKIS2 primary screening) of 5.04%. Moreover, the “Nuclear Count” value with SH-SY5Y cells [1] (PKIS2 primary screening) is given as 129.43. For the same compound, the TFE3 % with endogenous TFE3 (PKIS2 primary screening) was found to be 18.77%. Further, the “DQ Intensity” value with SH-SY5Y cells [2] (setting [4]) is reported as 104.29. Further, the “DQ Spot” value in the series on SH-SY5Y cells [2] (setting [5]) is on record as 96.16. In the series with SH-SY5Y cells [3] (PKIS2 primary screening), the AK is 133.16.

As for `Cc1ccc(C)c(NC(=O)Nc2ccc(C)c(-c3ccc(C(=O)Nc4ccncc4)cc3)c2)c1` [UNC10225228A], in the series on endogenous TFEB (PKIS2 primary screening), the TFEB % is on record as 7.17%. In addition, the “Nuclear Count” value with SH-SY5Y cells [1] (PKIS2 primary screening) was found to be 105.64. The TFE3 % in the series with endogenous TFE3 (PKIS2 primary screening) amounted to 10.54%. Further, in the series with SH-SY5Y cells [2] (PKIS2 primary screening), the “DQ Intensity” value came to 84.26 and the “DQ Spot” value came to 79.30. In addition, in the series on SH-SY5Y cells [3] (PKIS2 primary screening), the AK is listed as 74.48.

With `Nc1nc(-c2ccccc2F)c(-c2ccnc3ccccc23)s1` [UNC10225301A], in the series on endogenous TFEB (PKIS2 primary screening), the TFEB % is 2.45%. Also, in the series with SH-SY5Y cells [1] (PKIS2 primary screening), the “Nuclear Count” value was determined as 129.96. The same compound returned a TFE3 % with endogenous TFE3 (PKIS2 primary screening) of 14.12%. Further, the “DQ Intensity” value in the series with SH-SY5Y cells [2] (setting [4]) came out at 64.84. Further, the “DQ Spot” value in the series on SH-SY5Y cells [2] (setting [5]) is 87.10. Also, the AK in the series on SH-SY5Y cells [3] (PKIS2 primary screening) turned out to be 75.40.

On to `Nc1nc(-c2ccc3c(N)n[nH]c3c2)cc(N2CCCCC2)n1` [GSK2228768], for which the TFEB % in the series with endogenous TFEB (PKIS2 primary screening) was 3.41%. Besides, the “Nuclear Count” value in the series with SH-SY5Y cells [1] (PKIS2 primary screening) is on record as 85.37. Further, the TFE3 % in the series on endogenous TFE3 (PKIS2 primary screening) turned out to be 12.52%. Besides, in the series on SH-SY5Y cells [2] (setting [4]), the “DQ Intensity” value turned out to be 114.62. Further, the “DQ Spot” value with SH-SY5Y cells [2] (setting [5]) amounted to 125.41. The AK in the series with SH-SY5Y cells [3] (PKIS2 primary screening) was 117.34.

In the series on endogenous TFEB (PKIS2 primary screening), `CCn1c(-c2ccccc2)nc2cnccc21` [UNC10225407A] had a TFEB % of 8.26%. In addition, in the series with SH-SY5Y cells [1] (PKIS2 primary screening), the “Nuclear Count” value is reported as 99.61. Besides, the TFE3 % in the series with endogenous TFE3 (PKIS2 primary screening) turned out to be 8.88%. In the series on SH-SY5Y cells [2] (PKIS2 primary screening), the “DQ Intensity” value was determined as 107.17 and the “DQ Spot” value was 104.42. The compound further came in with an AK with SH-SY5Y cells [3] (PKIS2 primary screening) of 88.86.

Consider `Cc1c(Cn2ccn3c(=O)cc(N4CCOCC4)nc23)cccc1C(F)(F)F` [UNC10243861A], for which the TFEB % with endogenous TFEB (PKIS2 primary screening) is 1.67%. The “Nuclear Count” value in the series with SH-SY5Y cells [1] (PKIS2 primary screening) is on record as 146.89. Also, the TFE3 % in the series on endogenous TFE3 (PKIS2 primary screening) was determined as 6.09%. For the same compound, in the series with SH-SY5Y cells [2] (PKIS2 primary screening), the “DQ Intensity” value came out at 74.52 and the “DQ Spot” value is on record as 79.14. In the series with SH-SY5Y cells [3] (PKIS2 primary screening), the AK amounted to 106.43.

Take `Cc1occc1-c1nc(N)c(OC[C@@H](N)Cc2c[nH]c3ccccc23)cc1-c1cc2c(C)n[nH]c2cn1` [UNC10225217A]: in the series with endogenous TFEB (PKIS2 primary screening), the TFEB % came out at 6.02%. Besides, the “Nuclear Count” value with SH-SY5Y cells [1] (PKIS2 primary screening) is 82.67. In the series with endogenous TFE3 (PKIS2 primary screening), this compound registered a TFE3 % of 15.99%. In addition, in the series on SH-SY5Y cells [2] (PKIS2 primary screening), the “DQ Intensity” value is listed as 96.09 and the “DQ Spot” value turned out to be 101.21. Besides, the AK in the series with SH-SY5Y cells [3] (PKIS2 primary screening) was 91.49.

For the compound `Cc1cc(NCC(c2ccccc2)c2ccccc2)nc(NCc2ccc(C(F)(F)F)cc2)n1` [GW497681], the TFEB % in the series with endogenous TFEB (PKIS2 primary screening) worked out at 10.26%. The “Nuclear Count” value in the series on SH-SY5Y cells [1] (PKIS2 primary screening) turned out to be 83.96. This compound also came in with a TFE3 % with endogenous TFE3 (PKIS2 primary screening) of 31.99%. Further, the “DQ Intensity” value with SH-SY5Y cells [2] (setting [4]) was determined as 118.39. The “DQ Spot” value in the series with SH-SY5Y cells [2] (setting [5]) is 90.21. In the series with SH-SY5Y cells [3] (PKIS2 primary screening), this compound gave an AK of 143.14.

In the series with endogenous TFEB (PKIS2 primary screening), `Nc1n[nH]c2cc(-c3ccccn3)ccc12` [GSK2189892] had a TFEB % of 8.33%. Besides, in the series on SH-SY5Y cells [1] (PKIS2 primary screening), the “Nuclear Count” value turned out to be 100.38. In the series with endogenous TFE3 (PKIS2 primary screening), this compound registered a TFE3 % of 11.18%. For the same compound, the “DQ Intensity” value with SH-SY5Y cells [2] (setting [4]) was found to be 114.80. For the same compound, in the series with SH-SY5Y cells [2] (setting [5]), the “DQ Spot” value is on record as 107.54. The AK in the series on SH-SY5Y cells [3] (PKIS2 primary screening) was found to be 114.93.

`Cc1ccc(NC(=O)c2ccc(Cl)cc2)cc1-c1ccc(C(=O)Nc2ccncc2)cc1` [UNC10224985A] had a TFEB % with endogenous TFEB (PKIS2 primary screening) of 7.14%. For the same compound, in the series with SH-SY5Y cells [1] (PKIS2 primary screening), the “Nuclear Count” value was 119.79. Besides, in the series on endogenous TFE3 (PKIS2 primary screening), the TFE3 % was 13.44%. In the series on SH-SY5Y cells [2] (PKIS2 primary screening), the “DQ Intensity” value is given as 77.83 and the “DQ Spot” value was found to be 81.57. In the series with SH-SY5Y cells [3] (PKIS2 primary screening), this compound returned an AK of 72.98.

`N#Cc1ccc(CCNc2nccc(-c3cccc(CN4CCNCC4)c3)n2)cc1` [GSK2137462]: in the series with endogenous TFEB (PKIS2 primary screening), the TFEB % amounted to 6.80%. Also, the “Nuclear Count” value in the series on SH-SY5Y cells [1] (PKIS2 primary screening) came to 74.38. Also, the TFE3 % in the series with endogenous TFE3 (PKIS2 primary screening) was 23.49%. Also, the “DQ Intensity” value in the series with SH-SY5Y cells [2] (setting [4]) came to 97.76. For the same compound, the “DQ Spot” value in the series with SH-SY5Y cells [2] (setting [5]) came out at 74.26. The same compound registered an AK with SH-SY5Y cells [3] (PKIS2 primary screening) of 187.39.

In turn, `Cn1cc(-c2ccc3c(c2)CCN3C(=O)Cc2cccc(Cl)c2)c2c(N)ncnc21` [UNC10225039A] came in with a TFEB % in the series with endogenous TFEB (PKIS2 primary screening) of 7.96%. Also, in the series with SH-SY5Y cells [1] (PKIS2 primary screening), the “Nuclear Count” value worked out at 137.18. Also, in the series with endogenous TFE3 (PKIS2 primary screening), the TFE3 % was found to be 17.54%. Moreover, in the series with SH-SY5Y cells [2] (PKIS2 primary screening), the “DQ Intensity” value stood at 87.65 and the “DQ Spot” value is on record as 95.36. The AK in the series on SH-SY5Y cells [3] (PKIS2 primary screening) was determined as 96.09.

The values above are taken from publication PMC9851200, “Multiparameter phenotypic screening for endogenous TFEB and TFE3 translocation identifies novel chemical series modulating lysosome function” (Autophagy, 2022).
